In ChEMBL document CHEMBL1158274, “Antibacterial neoclerodane diterpenoids from Ajuga lupulina” (1996):
Calls of active or inactive are those of the source. No cut-off for these calls is given here.

Assays:
Type in all cases: functional
Staphylococcus aureus = test: Antibacterial activity against Staphylococcus aureus by paper disk diffusion method
Pseudomonas aeruginosa = test: Antibacterial activity against Pseudomonas aeruginosa NJ94 by paper disk diffusion method
Escherichia coli = test: Antibacterial activity against Escherichia coli by paper disk diffusion method

| Compound | inhibition zone (IZ) (Staphylococcus aureus) | Activity (Pseudomonas aeruginosa) | inhibition zone (IZ) (Escherichia coli) | Activity (Staphylococcus aureus) | Activity (Escherichia coli) | inhibition zone (IZ) (Pseudomonas aeruginosa) |
| --- | --- | --- | --- | --- | --- | --- |
| CC(=O)OC[C@@]12[C@@H](OC(C)=O)C[C@@H](C)[C@](C)([C@@H]3C[C@H]4C[C@H](O)O[C@H]4O3)[C@H]1CCC[C@]21CO1 | 1.2 mm | inactive | 1.2 mm | – | – | – |
| CO[C@H]1C[C@@H]2C[C@@H]([C@@]3(C)[C@H](C)C[C@H](OC(C)=O)[C@]4(COC(C)=O)[C@@H]3CCC[C@]43CO3)O[C@@H]2O1 | – | inactive | – | inactive | inactive | – |
| CC[C@@H](C)C(=O)O[C@H]1[C@H](O)C[C@@H]2[C@@](C)([C@@H]3C[C@H]4C[C@@H](OC)O[C@H]4O3)[C@H](C)C[C@H](OC(C)=O)[C@@]2(COC(C)=O)[C@@]12CO2 [LUPULIN A] | 1.5 mm | – | 3 mm | – | – | 3 mm |
| CC[C@@H](C)C(=O)O[C@H]1CC[C@@H]2[C@@](C)([C@@H]3C[C@H]4C[C@H](OC)O[C@H]4O3)[C@H](C)C[C@H](OC(C)=O)[C@@]2(COC(C)=O)[C@@]12CO2 [LUPULIN B] | 1.2 mm | inactive | 1.2 mm | – | – | – |
